Results from US8039514B2, “Sulfonamide compounds and use thereof” (Asahi Kasei Pharma Corporation, priority 2008, dated 2011).

These compounds were tested against T1, human calcium-sensing receptor (CaSR) (Homo sapiens, UniProt P41180) (assay: intracellular Ca assay, CaSR antagonist activity in HEK293/hCaSR cells). Settings: Fura2-AM, inhibition of response to calcium chloride ligand solution, read-out: IC50 values according to the intracellular Ca assay (CaSR antagonist activity).
T1 construct: expressed in transfected cells
T1 sequence (P41180 20-1078): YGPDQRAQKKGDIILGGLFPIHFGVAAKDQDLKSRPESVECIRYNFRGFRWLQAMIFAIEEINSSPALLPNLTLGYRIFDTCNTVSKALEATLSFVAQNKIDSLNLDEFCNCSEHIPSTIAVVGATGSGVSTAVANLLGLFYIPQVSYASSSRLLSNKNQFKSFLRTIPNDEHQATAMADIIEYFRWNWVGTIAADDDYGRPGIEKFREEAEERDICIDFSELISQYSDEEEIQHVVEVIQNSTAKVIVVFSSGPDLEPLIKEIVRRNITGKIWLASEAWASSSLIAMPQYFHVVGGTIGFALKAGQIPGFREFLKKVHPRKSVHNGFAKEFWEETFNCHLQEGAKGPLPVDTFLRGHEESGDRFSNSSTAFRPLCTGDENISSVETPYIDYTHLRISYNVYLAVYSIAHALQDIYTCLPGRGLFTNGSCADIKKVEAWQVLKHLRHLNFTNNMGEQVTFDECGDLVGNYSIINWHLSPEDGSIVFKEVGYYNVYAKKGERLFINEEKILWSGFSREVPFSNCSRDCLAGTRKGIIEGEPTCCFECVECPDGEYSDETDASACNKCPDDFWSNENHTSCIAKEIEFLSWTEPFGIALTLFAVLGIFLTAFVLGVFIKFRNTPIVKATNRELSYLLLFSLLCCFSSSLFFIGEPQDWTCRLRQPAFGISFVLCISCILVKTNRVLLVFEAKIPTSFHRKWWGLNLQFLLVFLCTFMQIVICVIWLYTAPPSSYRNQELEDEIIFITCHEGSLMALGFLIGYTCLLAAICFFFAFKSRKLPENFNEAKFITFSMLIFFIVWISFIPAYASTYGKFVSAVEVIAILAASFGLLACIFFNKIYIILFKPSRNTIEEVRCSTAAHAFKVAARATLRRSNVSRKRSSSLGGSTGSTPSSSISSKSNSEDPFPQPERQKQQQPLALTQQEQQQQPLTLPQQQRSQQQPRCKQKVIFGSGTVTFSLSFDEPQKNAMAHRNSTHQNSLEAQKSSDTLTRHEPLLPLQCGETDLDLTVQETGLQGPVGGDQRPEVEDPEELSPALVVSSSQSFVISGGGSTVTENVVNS
Assay type: cell-based
Procedure, shortened: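 HEK293/hCaSR cells were loaded with Fura2-AM and pre-incubated with compound for 160 s at 37° C in HEPES buffer (pH 7.4, 0.8 mM CaCl2), then challenged with calcium ligand solution. Read-out was the peak 340/380 nm fluorescence ratio; inhibition is relative to no-compound (0%) and no-calcium-ligand (100%) controls.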
An IC50 of 1 to 3 µM was found for `CN(C[C@H](O)CNC(C)(C)Cc1ccc2ccccc2c1)S(=O)(=O)c1cccc(-c2cc3c(c(C(=O)O)c2)OCC3)c1` [Exp. 3-13, (R)-5-(3-(N-(2-hydroxy-3-(2-methyl-1-(naphthalen-2-yl)propan-2-ylamino)propyl)-N-methylsulfamoyl)phenyl)-2,3-dihydrobenzofuran-7-carboxylic acid] in this work. An IC50 of 0.3 to 1 µM was found for `CN(C[C@H](O)CNC(C)(C)Cc1ccc2ccccc2c1)S(=O)(=O)c1cccc(-c2ccc(C=CC(=O)O)cc2)c1` [Exp. 3-14, (R)-3-(3′-(N-(2-hydroxy-3-(2-methyl-1-(naphthalen-2-yl)propan-2-ylamino)propyl)-N-methylsulfamoyl)biphenyl-4-yl)acrylic acid] in this work. `CN(C[C@H](O)CNC(C)(C)CC1Cc2ccccc2C1)S(=O)(=O)c1cc(-c2ccc(CC(=O)O)cc2)cc(C(F)(F)F)c1` [Exp. 3-133, (R)-2-(3′-(N-(3-(1-(2,3-dihydro-1H-inden-2-yl)-2-methylpropan-2-ylamino)-2-hydroxypropyl)-N-methylsulfamoyl)-5′-(trifluoromethyl)biphenyl-4-yl)acetic acid] was tested, and the IC50 was ≤ 0.3 µM. An IC50 of 0.3 to 1 µM was found for `CN(C[C@H](O)CNC(C)(C)Cc1ccc2ccccc2c1)S(=O)(=O)c1cccc(-c2cc(F)c(C(=O)O)c(F)c2)c1` [Exp. 3-25, (R)-3,5-difluoro-3′-(N-(2-hydroxy-3-(2-methyl-1-(naphthalen-2-yl)propan-2-ylamino)propyl)-N-methylsulfamoyl)biphenyl-4-carboxylic acid] in this work. An IC50 of 0.3 to 1 µM was found for `CN(C[C@H](O)CNC(C)(C)Cc1ccc2ccccc2c1)S(=O)(=O)c1cccc(-c2ccc(NC(=O)CCC(=O)O)cc2)c1` [Exp. 3-21, (R)-4-(3′-(N-(2-hydroxy-3-(2-methyl-1-(naphthalen-2-yl)propan-2-ylamino)propyl)-N-methylsulfamoyl)biphenyl-4-ylamino)-4-oxobutanoic acid] in this work. With `CCc1cc(-c2ccc(CCC(=O)O)cc2)ccc1S(=O)(=O)N(C)C[C@H](O)CNC(C)(C)CCCc1ccccc1F` [Exp. 9-89, (R)-3-(3′-ethyl-4′-(N-(3-(5-(2-fluorophenyl)-2-methylpentan-2-ylamino)-2-hydroxypropyl)-N-methylsulfamoyl)biphenyl-4-yl)propionic acid] the IC50 was ≤ 0.3 µM. `CN(C[C@H](O)CNC(C)(C)CCCc1ccccc1)S(=O)(=O)c1cc(-c2ccc(CCC(=O)O)cc2)cc(C(F)(F)F)c1` [Exp. 9-56, (R)-3-(3′-(N-(2-hydroxy-3-(2-methyl-5-phenylpentan-2-ylamino)propyl)-N-methylsulfamoyl)-5′-(trifluoromethyl)biphenyl-4-yl)propionic acid] was tested, and the IC50 was ≤ 0.3 µM. For `CN(C[C@H](O)CNC(C)(C)CCCc1ccsc1)S(=O)(=O)c1cc(-c2cccc(CCC(=O)O)c2)cc(C(F)(F)F)c1` [Exp. 9-73, (R)-3-(3′-(N-(2-hydroxy-3-(2-methyl-5-(thiophen-3-yl)pentan-2-ylamino)propyl)-N-methylsulfamoyl)-5′-(trifluoromethyl)biphenyl-3-yl)propionic acid], the IC50 was ≤ 0.3 µM. For `CN(C[C@H](O)CNC(C)(C)CCCc1ccccc1)S(=O)(=O)c1cc(F)cc(CCC(=O)O)c1Cl` [Exp. 9-173, (R)-3-(2-chloro-5-fluoro-3-(N-(2-hydroxy-3-(2-methyl-5-phenylpentan-2-ylamino)propyl)-N-methylsulfamoyl)phenyl)propionic acid], the IC50 was ≤ 0.3 µM. In the case of `CN(C[C@H](O)CNC(C)(C)CC1Cc2ccccc2C1)S(=O)(=O)c1cc(-c2cccc(CC(=O)O)c2)cc(C(F)(F)F)c1` [Exp. 3-154, (R)-2-(3′-(N-(3-(1-(2,3-dihydro-1H-inden-2-yl)-2-methylpropan-2-ylamino)-2-hydroxypropyl)-N-methylsulfamoyl)-5′-(trifluoromethyl)biphenyl-3-yl)acetic acid], the IC50 is reported as ≤ 0.3 µM. For `CCc1cc(-c2ccc(CCC(=O)O)cc2)ccc1S(=O)(=O)N(C)C[C@H](O)CNC(C)(C)CCCc1ccccc1` [Exp. 3-116, (R)-3-(3′-ethyl-4′-(N-(2-hydroxy-3-(2-methyl-5-phenylpentan-2-ylamino)propyl)-N-methylsulfamoyl)biphenyl-4-yl)propionic acid], the IC50 was ≤ 0.3 µM. With `CN(C[C@H](O)CNC(C)(C)CC1Cc2ccccc2C1)S(=O)(=O)c1ccc(-c2cccc(C(=O)O)c2)cc1C(F)(F)F` [Exp. 3-124, (R)-4′-(N-(3-(1-(2,3-dihydro-1H-inden-2-yl)-2-methylpropan-2-ylamino)-2-hydroxypropyl)-N-methylsulfamoyl)-3′-(trifluoromethyl)biphenyl-3-carboxylic acid] the IC50 was ≤ 0.3 µM. An IC50 of 0.3 to 1 µM was found for `CN(C[C@H](O)CNC(C)(C)Cc1ccc2ccccc2c1)S(=O)(=O)c1ccc(-c2ccc(C(=O)O)c(O)c2)cc1` [Exp. 3-46, (R)-3-hydroxy-4′-(N-(2-hydroxy-3-(2-methyl-1-(naphthalen-2-yl)propan-2-ylamino)propyl)-N-methylsulfamoyl)biphenyl-4-carboxylic acid] in this work. `CN(C[C@H](O)CNC(C)(C)CCCc1ccccc1)S(=O)(=O)c1cc(OCC(=O)O)cc(C(F)(F)F)c1` [Exp. 9-179, (R)-2-(3-(N-(2-hydroxy-3-(2-methyl-5-phenylpentan-2-ylamino)propyl)-N-methylsulfamoyl)-5-(trifluoromethyl)phenyloxy)acetic acid] was tested, and the IC50 was ≤ 0.3 µM. In the case of `CN(C[C@H](O)CNC(C)(C)CC1Cc2ccccc2C1)S(=O)(=O)c1ccc(CCCCCC(=O)O)c(C(F)(F)F)c1` [Exp. 10-14, (R)-6-(4-(N-(3-(1-(2,3-dihydro-1H-inden-2-yl)-2-methylpropan-2-ylamino)-2-hydroxypropyl)-N-methylsulfamoyl)-2-(trifluoromethyl)phenyl)hexanoic acid], the IC50 is reported as ≤ 0.3 µM. For `CCc1cc(-c2c(F)cccc2CCC(=O)O)ccc1S(=O)(=O)N(C)C[C@H](O)CNC(C)(C)CCCc1ccccc1` [Exp. 5-74, (R)-3-(3′-ethyl-6-fluoro-4′-(N-(2-hydroxy-3-(2-methyl-5-phenylpentan-2-ylamino)propyl)-N-methylsulfamoyl)biphenyl-2-yl)propionic acid], the IC50 was ≤ 0.3 µM. An IC50 of 1 to 3 µM was found for `Cc1ccc(CC(C)(C)NC[C@@H](O)CN(C)S(=O)(=O)c2cccc(-c3cccc(C(=O)O)c3)c2)cc1F` [Exp. 3-63, (R)-3′-(N-(3-(1-(3-fluoro-4-methylphenyl)-2-methylpropan-2-ylamino)-2-hydroxypropyl)-N-methylsulfamoyl)biphenyl-3-carboxylic acid] in this work. In the case of `Cc1cc(CCC(=O)O)sc1-c1cc(C(F)(F)F)cc(S(=O)(=O)N(C)C[C@H](O)CNC(C)(C)CCCc2ccccc2)c1` [Exp. 6-1, (R)-3-(5-(3-(N-(2-hydroxy-3-(2-methyl-5-phenylpentan-2-ylamino)propyl)-N-methylsulfamoyl)-5-(trifluoromethyl)phenyl)-4-methylthiophen-2-yl)propionic acid], the IC50 is reported as ≤ 0.3 µM. An IC50 of 1 to 3 µM was found for `CN(C[C@H](O)CNC(C)(C)Cc1ccc2ccccc2c1)S(=O)(=O)Cc1ccccc1-c1cc(F)cc(C(=O)O)c1` [Exp. 3-85, (R)-5-fluoro-2′-((N-(2-hydroxy-3-(2-methyl-1-(naphthalen-2-yl)propan-2-ylamino)propyl)-N-methylsulfamoyl)methyl)biphenyl-3-carboxylic acid] in this work. In the case of `Cc1cc(C(=O)O)ccc1-c1cccc(S(=O)(=O)N(C)C[C@H](O)CNC(C)(C)CC2Cc3ccccc3C2)c1` [Exp. 3-220, (R)-3′-(N-(3-(1-(2,3-dihydro-1H-inden-2-yl)-2-methylpropan-2-ylamino)-2-hydroxypropyl)-N-methylsulfamoyl)-2-methylbiphenyl-4-carboxylic acid], the IC50 is reported as ≤ 0.3 µM.
